From patent publication US8207134B2, “Fused ring spiroketal derivative and use thereof as anti-diabetic drug” (Chugai Seiyaku Kabushiki Kaisha, priority 2006, dated 2012)

Target: T1, human SGLT2 (Homo sapiens, UniProt P31639)
T1 construct: expressed in transfected cells; host or cells: CHO-K1
T1 sequence (P31639 1-672): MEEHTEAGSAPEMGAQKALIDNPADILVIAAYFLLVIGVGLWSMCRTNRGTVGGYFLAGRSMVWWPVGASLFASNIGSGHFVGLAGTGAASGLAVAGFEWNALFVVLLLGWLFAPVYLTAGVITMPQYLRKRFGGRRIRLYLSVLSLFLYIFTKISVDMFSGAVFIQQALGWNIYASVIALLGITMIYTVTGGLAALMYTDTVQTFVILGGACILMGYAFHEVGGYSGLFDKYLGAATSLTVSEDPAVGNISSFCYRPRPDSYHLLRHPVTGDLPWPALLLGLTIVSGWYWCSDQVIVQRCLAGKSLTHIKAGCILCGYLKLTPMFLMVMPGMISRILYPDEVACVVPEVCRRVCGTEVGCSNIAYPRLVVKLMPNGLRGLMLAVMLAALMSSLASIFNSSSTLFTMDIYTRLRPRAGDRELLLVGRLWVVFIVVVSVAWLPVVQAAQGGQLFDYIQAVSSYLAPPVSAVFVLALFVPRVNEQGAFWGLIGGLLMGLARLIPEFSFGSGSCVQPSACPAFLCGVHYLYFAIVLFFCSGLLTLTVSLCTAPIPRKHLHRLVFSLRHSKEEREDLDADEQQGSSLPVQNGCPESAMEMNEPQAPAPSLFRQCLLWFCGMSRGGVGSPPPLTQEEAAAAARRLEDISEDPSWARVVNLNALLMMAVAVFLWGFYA
Test: Inhibitory activity against methyl-α-D-glucopyranoside uptake of human Na+-glucose cotransporter SGLT2
Type: cell-based
Conditions: CHO-K1 cells stably expressing human SGLT2; methyl-α-D-(U-14C)glucopyranoside uptake, 37° C. for 45 minutes; read-out: Ic50 value (inhibition of SGLT2)
Text: Evaluation of Inhibitory Activity Against Methyl-α-D-Glucopyranoside Uptake of Human Na^+-Glucose Cotransporter (SGLT1 and SGLT2)
2) Construction of Human SGLT2 Expression Vector
Human SGLT2 cDNA was amplified by PCR with a cDNA library derived from human kidney (Clontech) as a template, synthetic DNA primers and KOD+ DNA Polymerase. The amplified cDNA was inserted into pcRII-Topo vector by using a Topo TA Cloning Dual Promoter kit. E. coli competent cells (TPO10) were transformed with the plasmid vector, cultured in LB medium containing ampicillin (50 mg/L) to grow ampicillin-resistant clones. The plasmid vector containing human SGLT2 cDNA was purified from the clone in a standard manner. Human SGLT2 cDNA added restriction enzyme recognition sites (Xho I at 5′-end, Hind III at 3′-end) was amplified by PCR with the plasmid vector as a template, synthetic DNA primers containing an additional restriction enzyme recognition site and KOD+ DNA Polymerase. This amplified cDNA was digested with Xho I and Hind III, and ligated into expression vector pcDNA3.1(−) digested with Xho I and Hind III by using a Rapid DNA Ligation kit. E. coli competent cells (DH5α) were transformed with the ligated expression vector and grown in ampicillin-containing LB medium. Human SGLT2 expression vector was purified from the ampicillin-resistant clone in a standard manner.
3) Establishment of Cell Lines Stably Expressing Human SGLT1 or Human SGLT2
The human SGLT1 expression vector or the human SGLT2 expression vector was digested with the restriction enzyme Pvu I and transfected into CHO-Kl cells with FuGENE (Roche Diagonostics). After the transfection, the cells were cultured at 37° C. in the presence of 5% CO2 for about 3 weeks in DMEM medium (Gibco) containing penicillin (50 U/mL, SIGMA), streptomycin (50 mg/L, SIGMA), geneticin (200 mg/L, Nacalai Tesque, Inc., Japan) and 20% fetal bovine serum to obtain geneticin-resistant clones. […]

SMILES | IC50
CCc1ccc(Cc2cccc3c4c(sc23)C2(OCC4)O[C@H](CO)[C@@H](O)[C@H](O)[C@H]2O)cc1 (stereo in doubt) [Example 3, (1S,3′R,4′S,5′S,6′R)-8-[(4-ethylphenyl)methyl]-3,3′,4,4′,5′,6′-hexahydro-6′-hydroxymethyl-spiro[2-oxa-9-thia-fluorene-1,2′-[2H]pyran]-3′,4′,5′-triol] | 5.1 nM
CCc1ccc(Cn2ccc3cc4c(cc32)[C@]2(OC4)O[C@H](CO)[C@@H](O)[C@H](O)[C@H]2O)cc1 [Example 2, (3′R,4′S,5′S,6′R,7S)-1-[(4-ethylphenyl)methyl]-6′-hydroxymethyl-3′,4,5′,6′-tetrahydro-spiro[furo[3,4,f]indole-7(5H),2′-[2H]pyran]-3′,4′,5′-triol] | 2 nM
CCc1ccc(Cc2csc3cc4c(cc23)[C@]2(OC4)O[C@H](CO)[C@@H](O)[C@H](O)[C@H]2O)cc1 [Example 1, (3′R,4′S,5S,5′S,6′R)-3-[(4-ethylphenyl)methyl]-6′-(hydroxymethyl)-3′,4′,5′,6′-tetrahydro-spiro[thieno[2,3,f]isobenzofuran-5(7H),2′-[2H]pyran]-3′,4′,5′-triol] | 3.9 nM
